According to patent US9090589B2, “Specific nNOS inhibitors for the therapy and prevention of human melanoma” (priority 2011, dated 2015):
“Also recorded” adds a separate entry of the source. Like-named read-outs stand apart in the source and are kept apart here.

Columns and labels:
[1] = tested on: wm3211; test: Cytotoxicity in melanoma cell line; type: cell-based; details: Homo sapiens
Excerpt: (§1) Proliferation analysis: MTT Colorimetric Assay was utilized for cell proliferation analysis according to manufacturer's protocol (Vybrant®, Molecular Probes, Inc. Eugene, Oreg.).

[2] = target: T1, iNOS (Mus musculus (Mouse), UniProt P29477); test: biochemical
[3] = target: T2, eNOS (Bos taurus (Bovine), UniProt P29473); test: biochemical
[4] = target: nNOS (Rattus norvegicus (Rat), UniProt P29476); test: biochemical; details: recombinant isozyme
[5] = tested on: nNOS; test: biochemical; details: for Selectivity nNOS/eNOS: Ki(eNOS)/Ki(nNOS); for Selectivity nNOS/iNOS: Ki(iNOS)/Ki(nNOS)
[6] = tested on: Sk-Mel28; test: Cytotoxicity in melanoma cell line; type: cell-based; details: Homo sapiens, SK-MEL-28
Excerpt: as §1

[7] = target: T1, iNOS; details: read-out: Ki iNOS; recombinant isozyme
[8] = target: T2, eNOS; details: read-out: Ki eNOS; recombinant isozyme
[9] = tested on: melanoma A375 cells; test: L-arginine-induced intracellular NO, Griess reagent; type: cell-based, human
Description: (§2) Measurements of intracellular Nitric Oxide levels and NOS activities: NO was measured as nitrite by interaction with Griess reagent (Enzo Life Sciences, Lausen, Switzerland). […] The NOS activity was analyzed by Ultrasensitive Colorimetric Assay according to manufacturer's protocol (Oxford Biomedical Research, Inc., Oxford, Mich.).

[10] = tested on: metastatic melanoma A375 cells in skin equivalents; test: 3-dimensional skin reconstructs, melanoma growth; type: cell-based, human; details: 2 weeks
Description: 3-Dimensional Skin Reconstructs: A 3-dimensional skin reconstruct was achieved using a literature method. […] Once the epidermus is adhered to the dermal layer, skin equivalents are then lifted to the air liquid interface to allow keratinocytes differentiation. […] By the end of experiments, the skin equivalents were fixed and stained with H&E for pathological evaluation. S-100 staining as a melanocyte biomarker was performed to visualize and confirm the lesion of melanoma.

[11] = tested on: human melanoma cells; test: MTT proliferation of melanoma cells under DETA/NO stress; type: cell-based
Excerpt: as §1

[12] = tested on: nNOS expression in melanoma cells; test: nNOS expression by immunoblotting in melanoma cells; type: cell-based, human; details: for induction of nNOS by DETA/NO or UVB radiation: as low as 1 μM
Description: Cell Protein Extraction and Western Blot Analysis: Melanoma cells were collected and lysed as described previously. […] Measurement of signal intensity on membranes was done using an imaging densitometer with Multi-Analyst software (Bio-Rad). All data were expressed as fold change of the control based on the calculation of density values of the specific protein bands standardized by α-Tubulin/actin. UV radiation and cell treatment: Cells were grown to about 70% confluence and media was removed completely for UV radiation. For UVA radiation, 5 ml of PBS was added to one 10-cm dish of cells and ice cubes were placed next to dishes for absorbing the heat generated by UVA. […] The UV intensity was measured by a radiometer with proper probes. Fresh media was added back after radiation and cells were returned to 37° C. incubator for recovering.

[13] = tested on: Lu1205 cells; test: Total NOS activity, Ultrasensitive Colorimetric Assay; type: cell-based, human
Description: as §2

[14] = tested on: metastatic melanoma cells; test: Matrigel invasion assay; type: cell-based, human
Description: Invasion Assay: The invasiveness of melanoma cells was assessed on the basis of invasion of cells through Matrigel-coated membrane (BD Biosciences). Briefly, melanoma cells were collected and reconstituted in serum-free medium. Prepared cells were added to the upper Matrigel-coated insert. After 20 hr incubation, cells were fixed and stained with hematoxylin. Membranes were visualized microscopically and the invading cells on each of triplicate membranes were counted and averaged for 20 random fields.

[15] = tested on: metastatic melanoma A375 cells; test: Adhesion of A375 cells to fibroblast monolayer; type: cell-based, human; details: 2 μM, 1 hour
Description: Non-adhesive cells were washed away by PBS and MTT reagent was utilized to determine the relative amount of cells that adhered to FB cells, which is calculated as: relative adhesive cell OD value=(sample OD value (adhesive melanoma cells+FB)−negative control OD value (FB only)). The mean changes of OD values with treatments (control is set as 0) represented the relative effects of compounds on melanoma adhesion.

[16] = tested on: human primary melanocytes; test: MTT proliferation of primary melanocytes; type: cell-based; details: 12-day period, DETA/NO exposure
Excerpt: as §1

[17] = tested on: nNOS expression in normal melanocytes; test: nNOS expression in normal melanocytes; type: cell-based, human; details: DETA/NO
Excerpt: Cell Protein Extraction and Western Blot Analysis: Melanoma cells were collected and lysed as described previously. […] Measurement of signal intensity on membranes was done using an imaging densitometer with Multi-Analyst software (Bio-Rad). All data were expressed as fold change of the control based on the calculation of density values of the specific protein bands standardized by α-Tubulin/actin.

[18] = target: T3, iNOS (Homo sapiens (Human), UniProt P35228); details: cited from earlier work
[19] = target: nNOS (Homo sapiens (Human), UniProt P29475); details: cited from earlier work
[20] = target: T3, iNOS; type: biochemical

SMILES: Nc1cccc(C[C@H]2CN(Cc3ccccc3)C[C@H]2NCCCc2ccccc2)n1 [Compound 2, 6-(((3S,4S)-1-benzyl-4-((3-phenylpropyl)amino)pyrrolidin-3-yl)methyl)pyridin-2-amine]
- IC50 [1]: 5 µM
- Ki [2]: 609 µM
- Ki [3]: 122 µM
- Ki [4]: 48 µM
- Selectivity nNOS/eNOS [5]: 2.5
- Selectivity nNOS/iNOS [5]: 12.7
- IC50 [6]: 3.5 µM

SMILES: Cc1cc(N)nc(C[C@H]2CNC[C@H]2NCCNCc2cccc(C(F)(F)F)c2)c1 [Compound 3, N^1-((3S,4S)-4-((6-amino-4-methylpyridin-2-yl)methyl)pyrrolidin-3-yl)-N^2-(3-(trifluoromethyl)benzyl)ethane-1,2-diamine]
- Ki [7]: 13.6 µM
- Ki [4]: 0.21 µM
- Selectivity nNOS/eNOS [5]: 552.4
- Selectivity nNOS/iNOS [5]: 64.8
- Ki [8]: 116 µM

SMILES: Cc1cc(N)nc(C[C@H]2CNC[C@H]2NCCN)c1 [Compound 5, N^1-((3S,4S)-4-((6-amino-4-methylpyridin-2-yl)methyl)pyrrolidin-3-yl)ethane-1,2-diamine]
- Ki [7]: 5.84 µM
- Ki [4]: 0.098 µM

SMILES: Cc1cc(N)nc(C[C@H]2CNC[C@@H]2NCCNCCc2cccc(F)c2)c1 [Compound 8, N^1-((3R,4S)-4-((6-amino-4-methylpyridin-2-yl)methyl)pyrrolidin-3-yl)-N^2-(3-fluorophenethyl)ethane-1,2-diamine]
- L-arginine-induced NO generation ([9]; as low as 1 μM, listed as cpd 8): inhibited; also recorded: efficiently inhibited NO production; also recorded: reduced
- melanoma overgrowth induced by L-arginine in skin reconstruct ([10]; 2 μM, L-arginine 2.87 mM): reversed the overgrowth induced by L-arginine
- DETA/NO-stimulated proliferation ([11]; co-treatment, after 3 days): significantly reversed
- induction of nNOS by DETA/NO or UVB radiation ([12]; listed as Cpd 8): effectively inhibited the induction of nNOS
- induction of nNOS by DETA/NO or UVB radiation ([12]; listed as cpd 8): inhibited nNOS expression
- basal nNOS levels of melanoma cells ([12]; up to 200 μM): does not affect basal nNOS levels
- NOS activity in metastatic Lu1205 cells ([13]; 1 μM): significantly reduced total NOS activities; also recorded: effectively inhibited
- invasion potential elevated by L-arginine ([14]; A375 cells, co-treatment with L-arginine 2.87 mM): inhibited; also recorded: efficiently reversed
- cell invasion potential elevated by DETA/NO ([14]; co-treatment with DETA/NO): reversed
- L-arginine-stimulated adhesion of A375 cells to fibroblast cells [15]: most potent inhibition of the relative adhesion

SMILES: NCCN(CCN)[N+]([O-])=NO [DETA/NO, 1-[N-(2-Aminoethyl)-N-(2-ammonioethyl)amino]diazen-1-ium-1,2-diolate, reference compound]
- cell proliferation of primary melanocytes [16]: significantly stimulated
- proliferation of metastatic Lu1205 and SK-Mel28 cells ([11]; 100 μM): Marked stimulation of proliferation
- proliferation of primary melanoma wm3211 cells ([11]; 100 μM): not significant
- nNOS induction in melanocytes [17]: not evident

SMILES: N=C(N)NCCC[C@H](N)C(=O)O [L-arginine, reference compound]
- intracellular NO level ([9]; incubation with L-arginine, A375 cells): increased
- melanoma growth in 3D skin equivalents ([10]; 2.87 mM): significantly promoted melanoma growth
- invasion potential of metastatic melanoma cells ([14]; 2.87 mM): markedly enhanced the invasion potential

SMILES: N=C(N)SCCc1cccc(CCSC(=N)N)c1 [PBIT, 1,3-phenylene-bis(1,2-ethanediyl)bisisothiourea]
- Ki [18]: 0.019 µM
- Ki [19]: 0.029 µM
- iNOS selectivity over nNOS [20]: 1.5 fold

SMILES: Cl.Cl.Cl.NCCCCNCCCN [Spermidine trihydrochloride (ST), Spermidine trihydrochloride, reference compound]
- NOS activity in metastatic Lu1205 cells ([13]; 10 μM): comparable inhibition of NOS activity

SMILES: COc1cc(/C=C/C(=O)CC(=O)/C=C/c2ccc(O)c(OC)c2)ccc1O [curcumin]
- L-arginine-induced NO generation ([9]; up to 50 μM): not affected at all; also recorded: failed to inhibit

SMILES: Oc1ccc(C=Cc2cc(O)cc(O)c2)cc1 [resveratrol]
- L-arginine-induced NO generation ([9]; up to 50 μM): not affected at all; also recorded: failed to inhibit
